How the values were obtained:
[1] = system: C. elegans; assay: C. elegans lifespan assay (Automated Lifespan Machine); assay type: in vivo
Experimental: Experimental Design: The lifespan assay was initiated by expanding all replicate groups to more than 1000 worms, then synchronizing by bleaching and allowing larval worms to hatch and arrest. To eliminate the effect of bacterial metabolism and growth on lifespan, synchronized worms were only exposed to dead food bacteria. To suppress progeny, worms are transferred to media containing 5-Fluorodeoxyuridine (FUdR) within 54-60 hours post plating. Worms are inspected at 24 and48 hours after this transfer to confirm infertility. Finally, the worms are inspected for general health and morphology before transferring to scanner plates. The scanner plates are incubated for an additional 2 days and inspected again before loading on to scanners. To understand the physiological impact of either genetic variation or pharmacological treatment on aging, it is crucial to use quantitative models. The analysis of lifespan data is grounded in the study of two mathematical functions: the survival curve and the hazard function. The survival curve (Figure 54) describes the fraction of a tested population that remains alive over time. The hazard function (Figure 55) is related to the survival curve and provides an intuitive measure of the risk of death. This function describes the probability that atypical individual who is currently alive will soon die, providing a clear visualization of the way a treatment may change patterns in mortality. To obtain high-resolution lifespan data and eliminate confounding factors such as worm handling and operator bias, lifespan data was collected using an Automated Lifespan Machine (ALM). Three biological replicates, derived from synchronizing three independently-maintained lines of N2 worms, were distributed across scanner instruments. Images of the worms were then collected for the next 35 days with no interruption or manipulations. Some plates were excluded after quality checks, but plate number and worm counts for all replicates exceeded the threshold for statistical significance (Table 32, row 1).Lifespan data are represented as the percent of worms surviving over time and the profile of this curve can be modeled by the Kaplan-Meier Estimate of Survival function (Figure 54). The survival curves can be compared by several statistics including mean, median, and maximum lifespan (Table 32), as well as the age of worms at a specific percent survival (Table 34). However, to determine whether one treatment group lived longer than another, survival curves are holistically compared using a log-rank test (Table 33). In this study, all pairwise comparisons between conditions were statistically significant. Tables 32 to 34 detail the raw measurements, calculations, and statistical analysis related to the survival curve in Figure 54. Lifespan is counted with day 0 set at day 1 of adulthood. No death times are recorded until worms are placed on the scanner on day 8 so earlier deaths are excluded from calculations of mean and median. Median lifespan is equal to the time at which 50% of the subjects have died. Mean lifespan is calculated from the area under the survival curve. Maximum lifespan is equal to 95th percentile of lifespans in each group. C.I.: Confidence Interval. See Figure 55 and Table 33 for statistical analysis Table 33: Pairwise statistical analysis of survival curves.

[2] = Microsomal stability; assay type: in vitro ADME; conditions: humans versus mice
[3] = system: LC3; assay: Autophagic flux (LC3 staining); assay type: cell-based, mouse
Experimental: Staining - Cells were permeabilized with 0.3% Triton X-100 in 4 °C PBS (pH 7.4 from ThermoFisher) for 10 minutes. Then the cells were washed two times with 4 °C PBS. Subsequently, cells are blocked with 3% NGS (normal goat serum from Thermo Fisher) in 4 ° C PBS for 1 hour. Cells were incubated with primary antibodies in blocking buffer (PBS, 3% NGS, 0.02% NaN3) over night at 4 °C. Primary antibodies were mouse antipolyglutamine monoclonal antibody 3B5H10 (Sigma-Aldrich) at 1:250 dilution and Guinea Pig anti-MAP2 polyclonal antibody (Synaptic Systems) at 1:500 dilution. […]
Fluorescence Imaging - Imaging sessions were performed on a confocal microscope system (Carl Zeiss Microscopy) equipped with a dual spinning disk unit (Yokogawa). […] The fluorescence images obtained of the immunofluorescence labelled tissue sections were quantified with the help of the "Image Processing and Analysis in Java" or short ImageJ software distributed under the GNU General Public License by the NIH (Rueden, C.T. et al., BMC Bioinformatics. 2017 Nov 29;18(1):529), i.e. the edition used was the Fiji distribution (Schindelin, J. et al., Nature methods. 2012 Jun 28;9(7):676-82). […]
Autophagic flux was calculated as the area stained with LC3 antibody per cell in STHdh 111/111 with autophagy inhibitor NH4CI minus area stained with LC3 antibody per cell in STHdh 111/111 without the autophagy inhibitor NH4CI.

Row | Structure (SMILES) | Age at 25% mortality ([1]; 200 nM) | Age at 50% mortality ([1]; 200 nM) | Age at 75% mortality ([1]; 200 nM) | Age at 90% mortality ([1]; 200 nM) | Age at 100% mortality ([1]; 200 nM) | Median lifespan ([1]; 200nM (vehicle control 24.3)) | Mean lifespan ([1]; 200nM (vehicle control 24.7)) | Maximum lifespan ([1]; 200nM (vehicle control 34.9), 95th percentile) | Age at 25% mortality ([1]; 2 µM) | Age at 50% mortality ([1]; 2 µM) | Age at 75% mortality ([1]; 2 µM) | Age at 90% mortality ([1]; 2 µM) | Age at 100% mortality ([1]; 2 µM) | Median lifespan ([1]; 2µM (vehicle control 24.3)) | microsomal stability in humans, times higher in comparison to mice [2] | autophagic flux ([3]; STHdh 111/111, LC3 area with NH4Cl minus without NH4Cl) | LC3 stained area ([3]; STHdh 111/111 neurons versus untreated, p < 0.001)
1 | CCc1c(C)[nH]c2ccc(C(=O)NCCN(CC)CC)cc12 [Compound 4, N-(2-(diethylamino)ethyl)-3-ethyl-2-methyl-1H-indole-5-carboxamide] | 21.42 days | 26.16 days | 29.57 days | 31.75 days | 39.46 days | 26.2 days | 25.7 | 33.7 days | 23.9 days | 27.54 days | 29.41 days | 31.23 days | 39.42 days | 27.6 days |  |  | 
2 | Cc1[nH]c2ccc(C(=O)NCCN(C(C)C)C(C)C)cc2c1C [Compound 22] |  |  |  |  |  |  |  |  |  |  |  |  |  |  | 20 times | positive autophagic flux | decreased

— patent EP4140481A1, “PROTEIN-OLIGOMER BINDING AGENTS AND THERAPEUTIC USES THEREOF” (Galyan Bio, Inc., priority 2021, dated 2023)
